Measured values reported in publication PMC8879095, “UHPLC-MS/MS Analysis of Antibiotics Transfer and Concentrations in Porcine Oral Fluid after Intramuscular Application” (Pharmaceuticals, 2022).
Like-named read-outs stand apart in the source and are kept apart here.

Tests used:
[1] = cited from earlier work
[2] = set-up: method as in earlier work; details: cited from earlier work
[3] = Antibiotic concentrations in porcine oral fluid after intramuscular application (UHPLC-MS/MS); format: in vivo; details: pigs, i.m.

CCC[C@@H]1C[C@@H](C(=O)N[C@@H]([C@H]2O[C@H](SC)[C@H](O)[C@@H](O)[C@H]2O)[C@@H](C)O)N(C)C1 [LIN, lincomycin]
pKa [1]: about 7.6 | apparent volume of distribution [2]: > 1 L/kg | concentration at 1 d ([3]; male, (Landrace × Yorkshire) × Duroc crossbred (DanBred sows), pig, intramuscular, oral fluid, first day of medication (abstract), read-out: concentration in oral fluid on the first day of medication): 10500 ng/g | concentration at 1 d ([3]; male, (Landrace × Yorkshire) × Duroc crossbred (DanBred sows), pig, intramuscular, oral fluid, time 1 d (24 h after first injection), treatment period, read-out: Avarage Concentrations in oral fluid): 10500 ng/mL | concentration at 2 d ([3]; male, (Landrace × Yorkshire) × Duroc crossbred (DanBred sows), pig, intramuscular, oral fluid, time 2 d, treatment period, read-out: Avarage Concentrations in oral fluid): 2960 ± 446 ng/mL | concentration at 3 d ([3]; male, (Landrace × Yorkshire) × Duroc crossbred (DanBred sows), pig, intramuscular, oral fluid, time 3 d, treatment period, read-out: Avarage Concentrations in oral fluid): 4250 ± 559 ng/mL | concentration at 4 d ([3]; male, (Landrace × Yorkshire) × Duroc crossbred (DanBred sows), pig, intramuscular, oral fluid, time 4 d, posttreatment, read-out: Avarage Concentrations in oral fluid): 1550 ng/mL | concentration at 5 d ([3]; male, (Landrace × Yorkshire) × Duroc crossbred (DanBred sows), pig, intramuscular, oral fluid, time 5 d, posttreatment, read-out: Avarage Concentrations in oral fluid): 1670 ± 199 ng/mL | concentration at 6 d ([3]; male, (Landrace × Yorkshire) × Duroc crossbred (DanBred sows), pig, intramuscular, oral fluid, time 6 d, posttreatment, read-out: Avarage Concentrations in oral fluid): 1790 ± 203 ng/mL | concentration at 7 d ([3]; male, (Landrace × Yorkshire) × Duroc crossbred (DanBred sows), pig, intramuscular, oral fluid, time 7 d, posttreatment, read-out: Avarage Concentrations in oral fluid): 1480 ± 186 ng/mL | concentration at 8 d ([3]; male, (Landrace × Yorkshire) × Duroc crossbred (DanBred sows), pig, intramuscular, oral fluid, time 8 d, posttreatment, read-out: Avarage Concentrations in oral fluid): 437 ± 101 ng/mL | concentration at 9 d ([3]; male, (Landrace × Yorkshire) × Duroc crossbred (DanBred sows), pig, intramuscular, oral fluid, time 9 d, posttreatment, read-out: Avarage Concentrations in oral fluid): 457 ± 96 ng/mL | concentration at 10 d ([3]; male, (Landrace × Yorkshire) × Duroc crossbred (DanBred sows), pig, intramuscular, oral fluid, time 10 d, posttreatment, read-out: Avarage Concentrations in oral fluid): 420 ± 83 ng/mL | concentration at 11 d ([3]; male, (Landrace × Yorkshire) × Duroc crossbred (DanBred sows), pig, intramuscular, oral fluid, time 11 d, posttreatment, read-out: Avarage Concentrations in oral fluid): 194 ± 55 ng/mL | concentration at 12 d ([3]; male, (Landrace × Yorkshire) × Duroc crossbred (DanBred sows), pig, intramuscular, oral fluid, time 12 d, posttreatment, read-out: Avarage Concentrations in oral fluid): 257 ± 76 ng/mL | concentration at 13 d ([3]; male, (Landrace × Yorkshire) × Duroc crossbred (DanBred sows), pig, intramuscular, oral fluid, time 13 d, posttreatment, read-out: Avarage Concentrations in oral fluid): 131 ± 41 ng/mL | concentration at 14 d ([3]; male, (Landrace × Yorkshire) × Duroc crossbred (DanBred sows), pig, intramuscular, oral fluid, time 14 d, posttreatment, read-out: Avarage Concentrations in oral fluid): 125 ± 33 ng/mL | concentration at 15 d ([3]; male, (Landrace × Yorkshire) × Duroc crossbred (DanBred sows), pig, intramuscular, oral fluid, time 15 d, posttreatment, read-out: Avarage Concentrations in oral fluid): 277 ± 61 ng/mL | concentration at 16 d ([3]; male, (Landrace × Yorkshire) × Duroc crossbred (DanBred sows), pig, intramuscular, oral fluid, time 16 d, posttreatment, read-out: Avarage Concentrations in oral fluid): 337 ± 69 ng/mL | concentration at 17 d ([3]; male, (Landrace × Yorkshire) × Duroc crossbred (DanBred sows), pig, intramuscular, oral fluid, time 17 d, posttreatment, read-out: Avarage Concentrations in oral fluid): 128 ± 28 ng/mL | concentration at 18 d ([3]; male, (Landrace × Yorkshire) × Duroc crossbred (DanBred sows), pig, intramuscular, oral fluid, time 18 d, posttreatment, read-out: Avarage Concentrations in oral fluid): 302 ± 51 ng/mL | concentration at 19 d ([3]; male, (Landrace × Yorkshire) × Duroc crossbred (DanBred sows), pig, intramuscular, oral fluid, time 19 d, posttreatment, read-out: Avarage Concentrations in oral fluid): 279 ± 44 ng/mL | concentration at 20 d ([3]; male, (Landrace × Yorkshire) × Duroc crossbred (DanBred sows), pig, intramuscular, oral fluid, time 20 d, posttreatment, read-out: Avarage Concentrations in oral fluid): 376 ± 52 ng/mL | concentration at 21 d ([3]; male, (Landrace × Yorkshire) × Duroc crossbred (DanBred sows), pig, intramuscular, oral fluid, time 21 d, posttreatment, read-out: Avarage Concentrations in oral fluid): 252 ± 39 ng/mL | concentration at 22 d ([3]; male, (Landrace × Yorkshire) × Duroc crossbred (DanBred sows), pig, intramuscular, oral fluid, time 22 d, posttreatment, read-out: Avarage Concentrations in oral fluid): 142 ± 24 ng/mL | concentration at 23 d ([3]; male, (Landrace × Yorkshire) × Duroc crossbred (DanBred sows), pig, intramuscular, oral fluid, time 23 d, posttreatment, read-out: Avarage Concentrations in oral fluid): 298 ± 33 ng/mL | concentration at 24 d ([3]; male, (Landrace × Yorkshire) × Duroc crossbred (DanBred sows), pig, intramuscular, oral fluid, time 24 d, posttreatment, read-out: Avarage Concentrations in oral fluid): 326 ± 47 ng/mL | concentration at 25 d ([3]; male, (Landrace × Yorkshire) × Duroc crossbred (DanBred sows), pig, intramuscular, oral fluid, time 25 d, posttreatment, read-out: Avarage Concentrations in oral fluid): 180 ± 44 ng/mL | concentration at 26 d ([3]; male, (Landrace × Yorkshire) × Duroc crossbred (DanBred sows), pig, intramuscular, oral fluid, time 26 d, posttreatment, read-out: Avarage Concentrations in oral fluid): 160 ± 36 ng/mL | concentration at 27 d ([3]; male, (Landrace × Yorkshire) × Duroc crossbred (DanBred sows), pig, intramuscular, oral fluid, time 27 d, posttreatment, read-out: Avarage Concentrations in oral fluid): 205 ± 43 ng/mL | concentration at 28 d ([3]; male, (Landrace × Yorkshire) × Duroc crossbred (DanBred sows), pig, intramuscular, oral fluid, time 28 d, posttreatment, read-out: Avarage Concentrations in oral fluid): 103 ± 26 ng/mL | concentration at 29 d ([3]; male, (Landrace × Yorkshire) × Duroc crossbred (DanBred sows), pig, intramuscular, oral fluid, time 29 d, posttreatment, read-out: Avarage Concentrations in oral fluid): 85.6 ± 16 ng/mL | concentration at 30 d ([3]; male, (Landrace × Yorkshire) × Duroc crossbred (DanBred sows), pig, intramuscular, oral fluid, time 30 d, posttreatment, read-out: Avarage Concentrations in oral fluid): 58.1 ng/mL | concentration in oral fluid at withdrawal period ([3]; oral fluid, at the end of the withdrawal period for tissues of each drug (Table 3)): 437 µg/L | Avarage Concentrations in oral fluid ([3]; oral fluid, time 1 d (24 h after first injection), treatment period): 10,500 ± 1889 µg/L | Avarage Concentrations in oral fluid ([3]; oral fluid, time 4 d, posttreatment): 1550 ± 211 µg/L | Avarage Concentrations in oral fluid ([3]; oral fluid, time 30 d, posttreatment): 58.1 ± 12 µg/L | distribution to oral fluid ([3]; conclusion in words): high distribution
